What follows are compounds tested on HBV (assay: HBV infection in HepG2-NTCP cells (HBeAg AlphaLISA in supernatants)). Details: Hepatitis B virus, 192 h; HBV infection of HepG2-NTCP cells; HBeAg in supernatants at day 8 post infection; read-out: Cellular EC50.
Assay type: cell-based
In short: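 Readout was day-8 supernatant HBeAg by AlphaLISA, with EC50 set against DMSO controls and binned A<0.1 μM, B 0.1-1 μM, C>1 μM. Compounds were added 2 h before HBV (2000 GE/cell, 4% PEG, 0.5% DMSO) to HepG2-NTCP A3 cells; from day 1 medium held 2.5% DMSO.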

EC50 | SMILES
< 0.1 µM | Cc1csc(COc2cc3c(cc2-c2cc(F)c(C(=O)O)s2)S(=O)(=O)N(C)[C@H](C2CCCCC2)CN3c2ccccc2)n1 [Example 501]
0.1 to 1 µM | CC(Oc1cc2c(cc1-c1cc(F)c(C(=O)O)s1)S(=O)(=O)N(C)[C@H](C1CCCCC1)CN2c1ccccc1)c1nccs1 (stereo partly shown) [Example 502]
< 0.1 µM | CN1[C@H](C2CCCCC2)CN(c2ccccc2)c2cc(OCC34CC(C#N)(CO3)C4)c(-c3cc(F)c(C(=O)O)s3)cc2S1(=O)=O [Example 504]
< 0.1 µM | CC(C)Oc1ccccc1COc1cc2c(cc1-c1cc(F)c(C(=O)O)s1)S(=O)(=O)N(C)[C@H](C1CCCCC1)CN2c1ccccc1 [Example 505]
< 0.1 µM | CC(C)Oc1cccc(COc2cc3c(cc2-c2cc(F)c(C(=O)O)s2)S(=O)(=O)N(C)[C@H](C2CCCCC2)CN3c2ccccc2)c1 [Example 506]
< 0.1 µM | CN1[C@H](C2CCCCC2)CN(c2ccccc2)c2cc(OCc3ccc(OC(F)(F)F)cc3)c(-c3cc(F)c(C(=O)O)s3)cc2S1(=O)=O [Example 507]
< 0.1 µM | CN1[C@H](C2CCCCC2)CN(c2ccccc2)c2cc(OCc3ccccc3)c(-c3cc(F)c(C(=O)O)s3)cc2S1(=O)=O [Example 508]
< 0.1 µM | CN1[C@H](C2CCCCC2)CN(c2ccccc2)c2cc(OCC3CN(C(=O)OC(C)(C)C)C3)c(-c3cc(F)c(C(=O)O)s3)cc2S1(=O)=O [Example 509]
< 0.1 µM | CN1[C@H](C2CCCCC2)CN(c2ccccc2)c2cc(OCc3ccccc3C#N)c(-c3cc(F)c(C(=O)O)s3)cc2S1(=O)=O [Example 510]
0.1 to 1 µM | CN1[C@H](C2CCCCC2)CN(c2ccccc2)c2cc(OCc3cccc(OC(F)(F)F)c3)c(-c3cc(F)c(C(=O)O)s3)cc2S1(=O)=O [Example 511]
< 0.1 µM | CCOC(=O)Nc1cc(-c2cc3c(cc2OCCOC)N(c2ccccc2)C[C@@H](C2CCCCC2)N(C)S3(=O)=O)sc1C(=O)O [Example 517]
< 0.1 µM | COCCOc1cc2c(cc1-c1cc(NC(=O)OCCOC(C)C)c(C(=O)O)s1)S(=O)(=O)N(C)[C@H](C1CCCCC1)CN2c1ccccc1 [Example 518, (R)-5-(3-cyclohexyl-7-(2-methoxyethoxy)-2-methyl-1,1-dioxido-5-phenyl-2,3,4,5-tetrahydrobenzo[f][1,2,5]thiadiazepin-8-yl)-3-(((2-isopropoxyethoxy)carbonyl)amino)thiophene-2-carboxylic acid]
< 0.1 µM | COCCOc1cc2c(cc1-c1cc(NC(=O)OCC3CC(F)(F)C3)c(C(=O)O)s1)S(=O)(=O)N(C)[C@H](C1CCCCC1)CN2c1ccccc1 [Example 519]
0.1 to 1 µM | CCCC[C@@H]1CN(c2ccccc2)c2cc(N3CCCC3)c(-c3ccc(F)c(C(=O)O)c3)cc2S(=O)(=O)N1C [Example 520, (R)-5-(3-butyl-2-methyl-1,1-dioxido-5-phenyl-7-(pyrrolidin-1-yl)-2,3,4,5-tetrahydrobenzo[f][1,2,5]thiadiazepin-8-yl)-2-fluorobenzoic acid]
0.1 to 1 µM | CCCC[C@@H]1CN(c2ccccc2)c2cc(N3CCCC3)c(-c3cc(C(=O)O)n(C)n3)cc2S(=O)(=O)N1C [Example 521]
< 0.1 µM | CCCC[C@@H]1CN(c2ccccc2)c2cc(Nc3ccccc3F)c(-c3ccc(F)c(C(=O)O)c3)cc2S(=O)(=O)N1C [Example 522]
0.1 to 1 µM | CCCC[C@@H]1CN(c2ccccc2)c2cc(F)c(-c3ccc(N(C)C)c(C(=O)O)c3)cc2S(=O)(=O)N1C [Example 523]
< 0.1 µM | CCCC[C@@H]1CN(c2ccccc2)c2cc(N(C)C)c(-c3ccc(F)c(C(=O)O)c3)cc2S(=O)(=O)N1C [Example 524]
> 1 µM | CCCC[C@@H]1CN(c2ccccc2)c2cc(-n3nnnc3C)c(-c3ccc(F)c(C(=O)O)c3)cc2S(=O)(=O)N1C [Example 525]
< 0.1 µM | CCCC[C@@H]1CN(c2ccccc2)c2cc(-n3cncn3)c(-c3ccc(F)c(C(=O)O)c3)cc2S(=O)(=O)N1C [Example 526]
0.1 to 1 µM | CCCC[C@@H]1CN(c2ccccc2)c2cc(-n3cnc4ccccc43)c(-c3ccc(F)c(C(=O)O)c3)cc2S(=O)(=O)N1C [Example 527]
< 0.1 µM | CCCCCNc1cc2c(cc1-c1ccc(F)c(C(=O)O)c1)S(=O)(=O)N(C)[C@H](C1CCCCC1)CN2c1ccccc1 [Example 528]
< 0.1 µM | CN(C)c1cc2c(cc1-c1ccc(F)c(C(=O)O)c1)S(=O)(=O)N(C)[C@H](C1CCCCC1)CN2c1ccccc1 [Example 529]
> 1 µM | CN1[C@H](C2CCCCC2)CN(c2ccccc2)c2cc(-n3ccccc3=O)c(-c3ccc(F)c(C(=O)O)c3)cc2S1(=O)=O [Example 530]
< 0.1 µM | CO[C@@H]1CCN(c2cc3c(cc2-c2ccc(F)c(C(=O)O)c2)S(=O)(=O)N(C)[C@H](C2CCCCC2)CN3c2ccccc2)C1 [Example 531]

EC50 | SMILES
< 0.1 µM | CO[C@H]1CCN(c2cc3c(cc2-c2ccc(F)c(C(=O)O)c2)S(=O)(=O)N(C)[C@H](C2CCCCC2)CN3c2ccccc2)C1 [Example 532]
0.1 to 1 µM | CN1[C@H](C2CCCCC2)CN(c2ccccc2)c2cc(N3CC4(CCCC4)C3)c(-c3ccc(F)c(C(=O)O)c3)cc2S1(=O)=O [Example 533]
0.1 to 1 µM | COC1CCN(c2cc3c(cc2-c2ccc(F)c(C(=O)O)c2)S(=O)(=O)N(C)[C@H](C2CCCCC2)CN3c2ccccc2)CC1 [Example 534]
0.1 to 1 µM | CC(=O)N1CCN(c2cc3c(cc2-c2ccc(F)c(C(=O)O)c2)S(=O)(=O)N(C)[C@H](C2CCCCC2)CN3c2ccccc2)CC1 [Example 535]
0.1 to 1 µM | CN1[C@H](C2CCCCC2)CN(c2ccccc2)c2cc(N3CCN(S(C)(=O)=O)CC3)c(-c3ccc(F)c(C(=O)O)c3)cc2S1(=O)=O [Example 536]
0.1 to 1 µM | COCCN(C)c1cc2c(cc1-c1ccc(F)c(C(=O)O)c1)S(=O)(=O)N(C)[C@H](C1CCCCC1)CN2c1ccccc1 [Example 537]
> 1 µM | CCCC[C@H]1CN(c2ccccc2)c2cc(N3CCCC3)c(-c3cccc(C(=O)O)c3)cc2S(=O)(=O)N1C [Example 538]
> 1 µM | CCCC[C@H]1CN(c2ccccc2)c2cc(Nc3ccccc3F)c(-c3cccc(C(=O)O)c3)cc2S(=O)(=O)N1C [Example 539]
> 1 µM | CCCC[C@H]1CN(c2ccccc2)c2cc(N3CCCCC3)c(-c3cccc(C(=O)O)c3)cc2S(=O)(=O)N1C [Example 540]
> 1 µM | CCCC[C@H]1CN(c2ccccc2)c2cc(N(C)c3ccc(F)cc3)c(-c3cccc(C(=O)O)c3)cc2S(=O)(=O)N1C [Example 541]
> 1 µM | CCCC[C@H]1CN(c2ccccc2)c2cc(N(C)C)c(-c3cccc(C(=O)O)c3)cc2S(=O)(=O)N1C [Example 542]
> 1 µM | CCCC[C@H]1CN(c2ccccc2)c2cc(N3CCCC3)c(-c3ccc(F)c(C(=O)O)c3)cc2S(=O)(=O)N1C [Example 543]
0.1 to 1 µM | CC(C)CC1CN(c2ccccc2)c2cc(N3CCCC3)c(-c3cccc(C(=O)O)c3)cc2S(=O)(=O)N1C (stereo not shown) [Example 544]
< 0.1 µM | CC(C)CC1CN(c2ccccc2)c2cc(N3CCCCC3)c(-c3cccc(C(=O)O)c3)cc2S(=O)(=O)N1C (stereo not shown) [Example 545]
0.1 to 1 µM | CC(C)C[C@@H]1CN(c2ccccc2)c2cc(Nc3ccccc3F)c(-c3ccc(Cl)c(C(=O)O)c3)cc2S(=O)(=O)N1C [Example 546]
0.1 to 1 µM | CC(C)C[C@@H]1CN(c2ccccc2)c2cc(Nc3cccc(F)c3)c(-c3ccc(Cl)c(C(=O)O)c3)cc2S(=O)(=O)N1C [Example 547]
0.1 to 1 µM | CC(C)C[C@@H]1CN(c2ccccc2)c2cc(Nc3ccc(F)cc3)c(-c3ccc(Cl)c(C(=O)O)c3)cc2S(=O)(=O)N1C [Example 548]
0.1 to 1 µM | CC(C)C[C@@H]1CN(c2ccccc2)c2cc(Nc3ccccn3)c(-c3ccc(Cl)c(C(=O)O)c3)cc2S(=O)(=O)N1C [Example 549]
> 1 µM | CC(C)C[C@@H]1CN(c2ccccc2)c2cc(Nc3ccncc3)c(-c3ccc(Cl)c(C(=O)O)c3)cc2S(=O)(=O)N1C [Example 550]
0.1 to 1 µM | CC(C)C[C@@H]1CN(c2ccccc2)c2cc(N3CCc4ccccc43)c(-c3ccc(Cl)c(C(=O)O)c3)cc2S(=O)(=O)N1C [Example 551]
< 0.1 µM | CC(C)C[C@@H]1CN(c2ccccc2)c2cc(N3CCCCC3)c(-c3ccc(Cl)c(C(=O)O)c3)cc2S(=O)(=O)N1C [Example 552]
0.1 to 1 µM | CC(C)C[C@@H]1CN(c2ccccc2)c2cc(N3CCc4cccc(F)c43)c(-c3ccc(Cl)c(C(=O)O)c3)cc2S(=O)(=O)N1C [Example 553]
0.1 to 1 µM | CC(C)C[C@@H]1CN(c2ccccc2)c2cc(N(C)c3ccc(F)cc3)c(-c3ccc(Cl)c(C(=O)O)c3)cc2S(=O)(=O)N1C [Example 554]
0.1 to 1 µM | CC(C)C[C@@H]1CN(c2ccccc2)c2cc(N(C)c3cccc(F)c3)c(-c3ccc(Cl)c(C(=O)O)c3)cc2S(=O)(=O)N1C [Example 555]

SMILES | EC50
Cc1cc(-c2cc3c(cc2OC2CCC2)N(c2ccccc2)C[C@@H](C2CCCCC2)N(C)S3(=O)=O)sc1C(=O)O [Example 513, (R)-5-(7-cyclobutoxy-3-cyclohexyl-2-methyl-1,1-dioxido-5-phenyl-2,3,4,5-tetrahydrobenzo[f][1,2,5]thiadiazepin-8-yl)-3-methylthiophene-2-carboxylic acid] | < 0.1 µM
COCCOc1cc2c(cc1-c1cc(NC(=O)OC(C)(C)C)c(C(=O)O)s1)S(=O)(=O)N(C)[C@H](C1CCCCC1)CN2c1ccccc1 [Example 515, (R)-3-((tert-butoxycarbonyl)amino)-5-(3-cyclohexyl-7-(2-methoxyethoxy)-2-methyl-1,1-dioxido-5-phenyl-2,3,4,5-tetrahydrobenzo[f][1,2,5]thiadiazepin-8-yl)thiophene-2-carboxylic acid] | < 0.1 µM
COCCOc1cc2c(cc1-c1cc(NC(=O)OCC(C)C)c(C(=O)O)s1)S(=O)(=O)N(C)[C@H](C1CCCCC1)CN2c1ccccc1 [Example 516, (R)-5-(3-cyclohexyl-7-(2-methoxyethoxy)-2-methyl-1,1-dioxido-5-phenyl-2,3,4,5-tetrahydrobenzo[f][1,2,5]thiadiazepin-8-yl)-3-((isobutoxycarbonyl)amino)thiophene-2-carboxylic acid] | < 0.1 µM
